The values below come from PMC5919655, “Practical spectrophotometric assay for the dapE-encoded N-succinyl-L,L-diaminopimelic acid desuccinylase, a potential antibiotic target” (PLoS ONE, 2018).

Test [1] deals with T1, succinyl-diaminopimelate desuccinylase (HiDapE) (Haemophilus influenzae, UniProt P44514).
T1 construct: gene dapE; recombinant HiDapE, His6-tag cleaved with TEV protease
The test can be described thus: hydrolysis by purified HiDapE monitored at […] nm (kcat/Km). The format is biochemical.

Test [2] has as its target T1, succinyl-diaminopimelate desuccinylase (HiDapE). The test can be described thus: ninhydrin-based assay of purified HiDapE with N6-methyl-L,L-SDAP substrate, […] nm. The format is biochemical.

SMILES strings stand for the structures. pIC50: −log10 of the molar value.

T1 sequence (P44514 whole entry): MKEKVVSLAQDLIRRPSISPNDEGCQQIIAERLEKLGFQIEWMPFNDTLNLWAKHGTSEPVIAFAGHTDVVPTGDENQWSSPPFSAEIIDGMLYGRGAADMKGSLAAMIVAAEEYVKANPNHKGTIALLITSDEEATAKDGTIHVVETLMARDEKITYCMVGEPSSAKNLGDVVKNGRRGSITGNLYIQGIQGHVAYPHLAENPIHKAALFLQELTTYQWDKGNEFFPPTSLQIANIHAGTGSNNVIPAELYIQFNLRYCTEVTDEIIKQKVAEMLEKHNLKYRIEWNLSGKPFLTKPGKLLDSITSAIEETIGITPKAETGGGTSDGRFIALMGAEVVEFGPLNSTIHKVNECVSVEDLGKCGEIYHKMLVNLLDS

On to `CN[C@@H](CCC[C@H](NC(=O)CCC(=O)O)C(=O)O)C(=O)O` [1b, (2S,6S)-2-(3-Carboxypropanamido)-6-(methylamino)heptanedioic acid], for which the “hydrolysis by purified HiDapE monitored at 225 nm (kcat/Km)” value in test [1] is 3.87x 10^4 M^-1S^-1.
`OB(O)c1cccs1` [2-thiopheneboronic acid]: in test [2], the negative-log IC50 (pIC50) (in general, −log10 of the IC50, conventionally taken in molar units) is 3.95.
In turn, `O=C(O)c1cccc(S)c1` [3-mercaptobenzoic acid] had a negative-log IC50 (pIC50) in test [2] of 4.66.
